According to patent US20250073209A1, “COVALENT TARGETING OF RhoA FOR CANCER THERAPY” (The University of Hong Kong, priority 2023, published 2025):

Columns and labels:
HCT116 xenograft = assay: Mouse HCT116 xenograft model; assay type: in vivo; conditions: nude mice, 10 mg/kg intraperitoneal
Procedure: FIG. 7A is a graph showing inhibition of tumor growth by CL16 in mouse HCT116 xenografts through intraperitoneal injection at 10 mg/kg (n=6 per group). FIG. 7B is a graph showing inhibition of tumor growth by CL16 in mouse HT29 xenografts through intraperitoneal injection at 10 mg/kg (n=7). FIG. 7C is a graph showing the body weight of mice with HT29 xenografts throughout the treatment with CL16. FIG. 7D is a graph showing inhibition of tumor growth by CL16 in mouse SW620 xenografts through intraperitoneal injection at 10 mg/kg (n=6 per group). FIG. 7E is a bar graph showing the tumor weight of harvested tumors from the treated mice with SW620 xenografts. FIG. 7F is a graph showing the body weight of mice with SW620 xenografts throughout the treatment with CL16. Statistical analysis using a two-tailed Student's t-test. *P<0.05.
7-week-old mice with weight around 20 g were inoculated subcutaneously with HCT116 (2×10^6 cells per mouse) or HT29 (3×10^6 cells per mouse) cells, in serum-free RMPI or Matrigel in PBS respectively. […] The tumor volume and body weight of the nude mice were measured throughout the treatment. The tumor volume was calculated by the equation: Volume (mm^3)=1×w^2/2, where 1 and w were the length and width of the tumor. At the end of the treatment, the mice were sacrificed and the tumor weight was measured. […]

RhoA WT = molecular target: T1, RhoA WT (Homo sapiens, UniProt P61586); assay: RhoA-GTP rhotekin pull-down in HT29 cells expressing RhoA WT; assay type: cell-based; conditions: 24 h
T1 construct: endogenous in cells; host or cells: HT29
T1 sequence (P61586 whole entry): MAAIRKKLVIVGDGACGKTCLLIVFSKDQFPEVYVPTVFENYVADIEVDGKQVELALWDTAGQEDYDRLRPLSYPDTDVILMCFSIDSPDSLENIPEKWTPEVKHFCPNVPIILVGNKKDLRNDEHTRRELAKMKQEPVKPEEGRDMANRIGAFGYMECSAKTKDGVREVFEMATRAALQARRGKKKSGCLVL
Procedure: RhoA Pull-Down Activation Assay Biochem Kit (#BK036) was purchased from Cytoskeleton. According to the manufacturer's protocol, total cell lysate (0.5 mg/mL; 300 μL) was added to 7.5 μL of Rhotekin-Rho Binding Domain beads in 0.6 mL tubes. The solution mixture was incubated at 4° C. on an end-to-end rotator for 1 hour. Beads were washed with 500 μL of washing buffer once, then centrifuged at 5000g for 3 min and the supernatant was discarded. RhoA-GTP was then eluted in 2× laemmli buffer and resolved in 10% SDS-PAGE.
The effects of CL16 in HT29 cells expressing RhoA WT protein and HT29 cells with RhoA C16 Å knock-in by CRISPR-Cas9 were investigated, respectively, to validate the molecular mechanism of RhoA inhibition and anti-cancer properties from CL16. […] HT29 cells expressing RhoA WT or C16 Å protein were incubated with solvent vehicle, CL16 or Rhosin in complete medium for 24 h. The cells were then washed, lysed, subjected to rhotekin pull-down and immunoblotted. […] Wound healing assay on HT29 cells expressing RhoA WT or C16 Å protein were incubated with solvent vehicle, CL16 or Rhosin in complete medium for 48 h (FIGS. 19A and 19B).

HCT116 cells = assay: Gel ABPP in HCT116 cells with CL16-alkyne; assay type: cell-based, human
Procedure: HCT116 and SW620 cells were plated onto 6-well plate at a density of 5×10^5 cells per well overnight. Then the cells were treated with CL16 at indicated concentration for 2 hours, followed by treatment with CL16-alkyne (1 μM) for 2 hours. After treatment, the cells were washed with PBS and lysed by probe sonication. Cell debris were removed by centrifugation at 5,000g for 10 min at 4° C. 50 μL of normalized protein lysates (2 mg/mL) were labeled with azide-fluor 545 by copper-catalyzed azide-alkyne cycloaddition at room temperature in dark for an hour. Then, the reaction was quenched by boiling in sampling buffer and samples were subjected to SDS-PAGE to separate proteins band for measuring in-gel fluorescence. After imaging, the gel was washed with MilliQ and incubated with Coomassie Blue stain with gentle shaking.
To identify protein target and any off-targets of CL16 in CRCs, a molecular probe of CL16, CL16-alkyne (FIG. 6A), was synthesized. […] The protein bands were then visualized by their in-gel fluorescence or blotted for RhoA. […] The probe-labeled proteins were installed with rhodamine through CuAAC, and visualized by their in-gel fluorescence after SDS-PAGE. A protein band with strong fluorescence was found at −22 kDa in the sample incubated with CL16-alkyne only, in line with the molecular weight of RhoA (FIG. 6C).

O=C(CCl)N1N=C(c2cc3ccccc3o2)CC1c1ccco1 (stereo not shown) [CL16]
tumor growth vs vehicle control (HCT116 xenograft): significantly inhibited tumor growth
active RhoA-GTP level (RhoA WT): significant decrease in the active RhoA-GTP level
fluorescent protein band at 22 kDa labeled by CL16-alkyne (HCT116 cells; CL16 pre-treatment at 10 μM): complete abolishment of the protein band
off-target binding (HCT116 cells; HCT116 cells): minimal off-target binding
